Reference: ChEMBL document CHEMBL5370629, “Probing the Interactions of Thiazole Abietane Inhibitors with the Human Serine Hydrolases ABHD16A and ABHD12” (ACS Med Chem Lett, 2023)

What was measured:
[1] = biological target: T1, Phosphatidylserine lipase ABHD16A (Homo sapiens) (UniProt O95870); assay: Inhibition of azido-fluorophosphonate probe binding to human ABHD16A expressed in HEK293T cells at 100 uM incubated for 1 hr followed by azido-fluorophosphonate addition and measured after 1 hr by fluorescent Western blotting analysis relative to control; type: cell-based; settings: time 2.0 hrs
T1 sequence (whole entry): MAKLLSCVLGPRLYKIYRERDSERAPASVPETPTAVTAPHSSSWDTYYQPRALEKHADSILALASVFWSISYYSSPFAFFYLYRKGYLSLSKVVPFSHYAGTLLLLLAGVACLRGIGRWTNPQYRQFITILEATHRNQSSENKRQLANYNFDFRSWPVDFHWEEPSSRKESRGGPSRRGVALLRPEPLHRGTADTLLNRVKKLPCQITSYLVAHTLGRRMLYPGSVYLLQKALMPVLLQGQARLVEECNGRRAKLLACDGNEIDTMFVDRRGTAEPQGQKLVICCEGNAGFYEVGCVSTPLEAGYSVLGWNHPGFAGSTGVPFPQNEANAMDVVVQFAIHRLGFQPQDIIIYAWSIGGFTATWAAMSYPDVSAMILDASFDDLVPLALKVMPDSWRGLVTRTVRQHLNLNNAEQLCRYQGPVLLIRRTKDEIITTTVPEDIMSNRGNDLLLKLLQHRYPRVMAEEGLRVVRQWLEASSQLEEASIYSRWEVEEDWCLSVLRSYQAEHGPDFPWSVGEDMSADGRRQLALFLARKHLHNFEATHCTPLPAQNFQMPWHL

[2] = biological target: T2, Phosphatidylserine lipase ABHD16A (Mus musculus) (UniProt Q9Z1Q2); assay: Inhibition of azido-fluorophosphonate probe binding to mouse ABHD16A expressed in HEK293T cells at 200 uM incubated for 1 hr followed by azido-fluorophosphonate addition and measured after 1 hr by fluorescent Western blotting analysis relative to control; type: cell-based; settings: time 2.0 hrs
T2 sequence (whole entry): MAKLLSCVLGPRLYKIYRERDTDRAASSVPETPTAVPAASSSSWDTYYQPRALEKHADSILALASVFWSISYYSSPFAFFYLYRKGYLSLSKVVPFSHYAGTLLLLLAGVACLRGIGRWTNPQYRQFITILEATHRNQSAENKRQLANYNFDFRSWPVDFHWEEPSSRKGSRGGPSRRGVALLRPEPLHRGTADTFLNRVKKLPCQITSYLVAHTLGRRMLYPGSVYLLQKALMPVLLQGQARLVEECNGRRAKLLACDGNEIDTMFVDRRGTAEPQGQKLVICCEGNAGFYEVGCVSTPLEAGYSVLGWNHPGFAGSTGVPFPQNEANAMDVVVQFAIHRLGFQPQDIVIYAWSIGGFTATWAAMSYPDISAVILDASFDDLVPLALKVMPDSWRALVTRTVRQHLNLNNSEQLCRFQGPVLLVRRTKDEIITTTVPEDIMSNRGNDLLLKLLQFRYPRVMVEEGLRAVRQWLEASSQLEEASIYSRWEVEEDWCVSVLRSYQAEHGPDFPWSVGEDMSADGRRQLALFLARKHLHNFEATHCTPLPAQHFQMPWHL

[3] = biological target: T2, Phosphatidylserine lipase ABHD16A (Mus musculus); assay: Inhibition of azido-fluorophosphonate probe binding to mouse ABHD16A expressed in HEK293T cells at 20 uM incubated for 1 hr followed by azido-fluorophosphonate addition and measured after 1 hr by fluorescent Western blotting analysis relative to control; type: cell-based; settings: time 2.0 hrs
[4] = biological target: T1, Phosphatidylserine lipase ABHD16A (Homo sapiens); assay: Inhibition of azido-fluorophosphonate probe binding to human ABHD16A expressed in HEK293T cells at 20 uM incubated for 1 hr followed by azido-fluorophosphonate addition and measured after 1 hr by fluorescent Western blotting analysis relative to control; type: cell-based; settings: time 2.0 hrs
[5] = biological target: T3, ABHD12 (lysophosphatidylserine lipase) (Homo sapiens, UniProt Q8N2K0); assay: Inhibition of azido-fluorophosphonate probe binding to human ABHD12 expressed in HEK293T cells at 20 uM incubated for 1 hr followed by azido-fluorophosphonate addition and measured after 1 hr by fluorescent Western blotting analysis relative to control; type: toxicity, cell-based; settings: HEK293T cells that express human ABHD12, probe azido-fluorophosphonate
T3 sequence (Q8N2K0 whole entry): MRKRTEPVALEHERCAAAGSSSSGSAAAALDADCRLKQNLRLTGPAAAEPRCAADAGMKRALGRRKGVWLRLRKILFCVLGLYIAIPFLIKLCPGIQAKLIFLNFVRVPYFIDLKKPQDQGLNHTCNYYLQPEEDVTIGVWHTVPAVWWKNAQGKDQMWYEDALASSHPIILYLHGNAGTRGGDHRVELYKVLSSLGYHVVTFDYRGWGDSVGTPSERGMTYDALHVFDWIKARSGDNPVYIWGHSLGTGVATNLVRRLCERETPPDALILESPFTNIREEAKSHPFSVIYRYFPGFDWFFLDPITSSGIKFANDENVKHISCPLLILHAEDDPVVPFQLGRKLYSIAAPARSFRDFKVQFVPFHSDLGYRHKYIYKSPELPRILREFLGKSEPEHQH

[6] = biological target: T3, ABHD12 (lysophosphatidylserine lipase); assay: Inhibition of azido-fluorophosphonate probe binding to human ABHD12 expressed in HEK293T cells at 100 uM incubated for 1 hr followed by azido-fluorophosphonate addition and measured after 1 hr by fluorescent Western blotting analysis relative to control; type: toxicity, cell-based; settings: HEK293T cells that express human ABHD12, probe azido-fluorophosphonate
[7] = biological target: T2, Phosphatidylserine lipase ABHD16A (Mus musculus); assay: Inhibition of azido-fluorophosphonate probe binding to mouse ABHD16A expressed in HEK293T cells at 20 to 100 uM incubated for 1 hr followed by azido-fluorophosphonate addition and measured after 1 hr by fluorescent Western blotting analysis relative to control; type: cell-based; settings: dose 20-100 µM, time 2.0 hrs
[8] = biological target: T4, Lysophosphatidylserine lipase ABHD12 (Homo sapiens, UniProt Q8N2K0); assay: Inhibition of azido-fluorophosphonate probe binding to human ABHD12 expressed in HEK293T cells at 20 to 100 uM incubated for 1 hr followed by azido-fluorophosphonate addition and measured after 1 hr by fluorescent Western blotting analysis; type: toxicity, cell-based; settings: 2 h, dose 20-100 µM
T4 sequence (Q8N2K0 whole entry): T3 sequence (Q8N2K0 whole entry)

CC(=O)c1nc(-c2cc3c(cc2C(C)C)CC[C@H]2[C@](C)(C(N)=O)CCC[C@]32C)cs1 showed an inhibition [1] of 45.5%, an inhibition [2] of 83.5% and an inhibition [3] of 55.5%. It also gave an inhibition [4] of 33.5%.
CC(C)c1cc2c(cc1-c1csc([C@H](C)O)n1)[C@@]1(C)CCC[C@@](C)(C(N)=O)[C@@H]1CC2 gave an inhibition [1] of 37.6% and an inhibition [2] of 59.8%.
Molecule COC(=O)[C@]1(C)CCC[C@]2(C)c3cc(-c4csc([C@H](C)O)n4)c(C(C)C)cc3CC[C@@H]12 has an inhibition [1] of 48%, an inhibition [2] of 66.4% and an inhibition at 2 h, 20 µM [5] of 54%. It also gave an inhibition [4] of 35.7% and an inhibition at 2 h, 100 µM [6] of 60.9%.
COC(=O)[C@]1(C)CCC[C@]2(C)c3cc(-c4csc(C)n4)c(C(C)C)cc3C(=O)C[C@@H]12 was tested, and the inhibition [1] was 55.1%, the inhibition [2] was 73.2% and the inhibition [4] was 32.2%.
For CC(C)c1cc2c(cc1-c1csc([C@H](C)O)n1)[C@@]1(C)CCCC(C)(C)[C@@H]1CC2, the inhibition [7] was 34.1% and the “inhibition (INH)” value [8] was “Not Active”.
Molecule COC(=O)[C@]1(C)CCC[C@]2(C)c3cc(-c4csc(COC(C)=O)n4)c(C(C)C)cc3CC[C@@H]12 has an inhibition [1] of 48.4% and an inhibition [2] of 62.9%.
